Read-outs that look alike come from different tables or passages of the source.
What was measured:
[1] = system: H295R cells; assay: H295R steroidogenesis assay (oestrogen and androgen production); assay type: cell-based, human; conditions: Homo sapiens, NCI-H295R, 48 h
Description: The in vitro H295R Steroidogenesis Assay is based on the human adenocarcinoma cell line, NCI-H295R, in which the human steroidogenesis pathway is fully functional (OECD 2022). The effect of the test chemical on the production of 17β-estradiol and testosterone is measured using ERα CALUX and AR CALUX technology.
The test chemical was tested in two independent assays, each in triplicate.

[2] = system: ER; assay: ToxCast ER assays and final ToxCast call; conditions: for Final "true" call (ToxCast) ER: from active ToxCast assays, cytotoxicity, ToxCast Pathway Model and CERAPP Potency Level; for ToxCast result (ER): overall call from ToxCast data (Supplementary Table 2)
Source text: (§1) A rich source of data can be found in the EPA's ToxCast database (US EPA). This contains ED data for ~ 1800 chemicals in more than 700 high-throughput assay endpoints that cover a range of high-level cell responses. The US EPA is running an Endocrine Disruption Screening Program (EDSP), with the aim of prioritising chemicals using high-throughput screening methods and computational toxicology approaches to evaluate thousands of chemicals for ED activities. The OECD framework for ED assessment (OECD [2018]) requires animal testing at higher levels, where relevant in vitro alternatives are missing e.g. for developmental, reproductive, neurological and immune effects. However, such follow-up testing is not possible for the cosmetics industry especially in the EU due to the complete animal testing ban which came into force in March 2013 (EU [2009]). Even for other industries, animal models are not suitable for assessing ED effects due to issues relating to ethics, capacity, speed and relevance (Patisaul et al. [2018]). Therefore, chemicals which cannot be evaluated using in vivo method must be assessed using alternative methods e.g. in silico and in vitro methods listed in Levels 1 and 2 of the framework described in the OECD 150 test guideline (OECD [2018]).
(§2) The performance of different in silico models for ED effects tends to be evaluated on single model for a single effect, such as ER or AR binding, agonism or antagonism (normally by the developer), or a limited number of models using multiple chemicals (Weyrich et al. [2022]). Multi-organisation collaborations have also evaluated multiple models for a specific effect e.g. ER (Mansouri et al. [2016]) and AR (Mansouri et al. [2020]) effects. Therefore, we have conducted a side-by-side comparison of multiple different in silico models covering three pathways in ED, namely ER, AR and aromatase inhibition and compared these with ToxCast-derived final calls, as well as with results from in vitro assays. The efficiency of the in silico models was evaluated as a metric for the ability of the in silico model to generate concrete predictions. […] In vivo data were available for some but not all chemicals; therefore, an evaluation of the performance of the methods was made by comparing the derived overall calls from in silico models with those from the ToxCast database. The final call for each chemical evaluated in the ToxCast assays was made by considering the active-flagged assays and the corresponding cytotoxicity levels, the ToxCast Pathway Model (Browne et al. [2015]) and the CERAPP Potency Level (Mansouri et al. [2016]) for ER effects and the ToxCast Pathway Model (Kleinstreuer et al. [2017]) for AR effects (see Online Resource 1 Supplementary Tables 2, 4 and 6 for the outcome of the ER, AR and aromatase ToxCast assays, additional literature and final calls for each chemical and target).

[3] = system: AR; assay: ToxCast AR assays and final ToxCast call; conditions: for Final "true" call (ToxCast): AR effects, from active assays, cytotoxicity and pathway model; for ToxCast result: AR overall call from Supplementary Table 4; for Final "true" call (ToxCast) AR: from ToxCast assays and ToxCast Pathway Model
Source text: as §1, §2

[4] = system: aromatase; assay: ToxCast aromatase assays (TOX21_Aromatase_Inhibition) and final ToxCast call; assay type: cell-based; conditions: for ToxCast result: aromatase overall ToxCast call; for Final "true" call (ToxCast) Aromatase inhibition: from ToxCast assays
Source text: as §2
Aromatase represents only one enzyme involved in steroidogenesis (the conversion of androgens to oestrogens); therefore, the aromatase assay detects effects on 17β-oestradiol production only. […] It is a cell-based assay in which MCF-7 cells are incubated with the test chemical for 24 h before measuring aromatase activities indirectly via a luciferase-based reporter endpoint which is dependent on the binding of the oestradiol–ER complex to the oestrogen response element. A decrease in luciferase activity can occur as a result of direct inhibition of aromatase (preventing the production of oestradiol) or by preventing oestradiol from binding to the ER and thus the binding to the oestrogen RE which initiates the production of luciferase (Lui et al. [2008]).

[5] = system: ER; parameters: method as in US EPA ToxCast; conditions: ref US EPA ToxCast, cited from earlier work; for ToxCast 1: (Comments), efficacy: borderline: less than 50% efficacy; for ToxCast 1: (Active assays), ER assay listed as active: each listed assay name = active-flagged assay
[6] = system: ER; parameters: method as in Browne, et al (2015); conditions: ref Browne, et al (2015), cited from earlier work
[7] = system: ER; parameters: method as in Mansouri et al. 2016; conditions: ref Mansouri et al. 2016; cited from earlier work
[8] = system: AR; parameters: method as in ToxCast; conditions: ref ToxCast, cited from earlier work; for ToxCast 1: (Active assays), number of positive assays / assays run: ToxCast AR assays
[9] = system: AR; conditions: AR pathway model; ref Kleinstreuer et al (2017) 10.1021/acs.chemrestox.6b00347; cited from earlier work
[10] = system: aromatase; parameters: method as in US EPA ToxCast; conditions: ref US EPA ToxCast; cited from earlier work
[11] = system: human (non-selective) ER; assay: ER radioligand ([3H]estradiol) receptor-binding assay
Description: The chemicals were tested for their ability to bind to different targets. […] Chemicals were incubated at 10 µM with cells overexpressing ER or AR for 24 h at 4°C, after which, the binding of the radiolabeled ligand ([^3H]estradiol for ER and [^3H]methyltrienolone for AR) was measured by liquid scintillation counting. An increase or decrease higher than 50% were considered to represent significant effects. Four chemicals were tested in additional incubations at several concentrations up to the maximum soluble concentration for IC50 or EC50 determination for the associated target. Receptor binding was calculated as a % inhibition of the binding of a radioactively labeled ligand specific for each target.
Each test chemical was tested in a single assay in duplicate.

[12] = biological target: T1, ERα (Homo sapiens, UniProt P03372); assay: YES (Yeast oestrogen screen) assay, agonist and antagonist mode; conditions: YES antagonist assay
T1 sequence (P03372 1-595): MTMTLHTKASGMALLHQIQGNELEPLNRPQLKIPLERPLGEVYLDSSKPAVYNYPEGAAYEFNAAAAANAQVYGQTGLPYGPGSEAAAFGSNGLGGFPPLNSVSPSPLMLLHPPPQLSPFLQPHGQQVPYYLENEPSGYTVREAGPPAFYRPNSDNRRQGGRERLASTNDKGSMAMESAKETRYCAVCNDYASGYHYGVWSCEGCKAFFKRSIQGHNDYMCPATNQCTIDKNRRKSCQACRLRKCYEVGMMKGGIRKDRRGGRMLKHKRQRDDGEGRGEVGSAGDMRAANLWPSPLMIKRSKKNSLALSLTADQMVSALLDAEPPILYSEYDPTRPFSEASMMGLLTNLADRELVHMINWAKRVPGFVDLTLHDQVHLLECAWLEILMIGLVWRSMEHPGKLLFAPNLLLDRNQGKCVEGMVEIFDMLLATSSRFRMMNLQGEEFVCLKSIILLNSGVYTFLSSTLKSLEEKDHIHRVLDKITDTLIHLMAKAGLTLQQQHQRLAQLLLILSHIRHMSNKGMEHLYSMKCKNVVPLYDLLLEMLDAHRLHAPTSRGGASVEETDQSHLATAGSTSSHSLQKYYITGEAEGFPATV
Description: The YES/YAS XL (Xtra Lyticase) assay kit from Xenometrix AG (Allschwil, Switzerland) was conducted according to the Supplier’s instructions.
In the YES assay, human ERα is integrated in the yeast (Saccharomyces cerevisiae) chromosome, and for the YAS assay human AR is integrated (Routledge and Sumpter 1996; Sohoni and Sumpter 1998). […] This enzyme then converts a yellow substrate to a purple metabolite, which can be measured colorimetrically.
Growing yeast cells stably transformed with either hERα (YES) or hAR (YAS) and a β-galactosidase reporter system were exposed to a range of concentrations of each test compound. […] The positive control chemicals for agonistic effects were 17-β estradiol for YES and 5α-dihydrotestosterone for YAS. […] A combination of a fixed concentration of positive control and a range of concentrations of each test chemical were tested. The cells were incubated with each treatment for 18 h at 31°C. The cells were lysed in the presence of the yellow β-galactosidase-substrate, chlorophenol red-β-D-galactopyranoside (CPRG). Yeast cell growth was assessed prior to addition of the lysis buffer by measuring the absorbance at 690 nm. The production of the red metabolite of CPRG was determined by measuring the absorbance at 570 nm. It was corrected for diffraction by cells and debris by a simultaneous measurement at 690 nm. The results were evaluated for estrogenic and androgenic agonistic and antagonistic activity, as well as for yeast growth inhibition or cytotoxicity.
An IR value ≥ IR10 in the YES or YAS agonist assay indicates an agonistic effect (IR10 is defined as the IR which is 10% of (IR max - IR solvent) above the IR solvent. An IR value ≤ IR50 in the YES or YAS antagonist assay indicates a possible antagonistic effect (IR50 is defined as 50% of (IR control - IR solvent), where the IR control is at the corresponding fixed concentration of agonist used: 3.3 × 10^-10 M 17-β estradiol and 3.3 × 10^-9 M 5α-dihydrotestosterone, respectively). […]

[13] = biological target: T1, ERα; assay: (anti-)ERα CALUX receptor transactivation assay; assay type: cell-based; parameters: expressed in transfected cells; host or cells: CALUX cells (U2-OS is named only for the cytotoxicity CALUX)
Description: The human CALUX® assays were used to measure the impact of test compounds on estrogen and androgen pathways. […] Chemicals can activate (or inactivate, in the case of an antagonistic activity) a ligand-specific pathway by binding to the receptor (ER, AR), after which the receptor-ligand complex binds to specific DNA REs […], resulting in increased (or decreased) cellular expression of a marker protein (e.g., luciferase).
Chemicals were dissolved and diluted in DMSO. […] The cytotoxicity of each test chemical was assessed using the U2-OS based cytotoxicity CALUX bioassay. Concentrations causing >20% reduction of luminescence were considered cytotoxic. […] Luciferase production was quantified by measuring luminescence following addition of luciferin. For antagonist assays, a fixed concentration of receptor agonist was co-incubated with a range of concentrations of the test chemical. […] For the AR assays, dihydrotestosterone was the positive control for agonistic effects and flutamide was the positive control for antagonist effects.
Each test chemical was tested in triplicates in two independent experiments.

[14] = system: aromatase; parameters: method as in Lu et al. [2012]; conditions: recombinant and placental microsomal preparations; ref Lu et al. [2012]; cited from earlier work
[15] = read-out: Steroidogenesis Androgenicity LEC
[16] = read-out: Steroidogenesis Estrogenicity LEC

SMILES | minimal effective concentration [1, 15] [µM] | minimal effective concentration [1, 16] [µM] | Final "true" call (ToxCast) ER [2] | ToxCast result (ER) [2] | Final "true" call (ToxCast) [3] | ToxCast result [3] | Final "true" call (ToxCast) AR [3] | ToxCast result [4] | Final "true" call (ToxCast) Aromatase inhibition [4] | ToxCast 1: (Comments), efficacy [5] | ToxCast 1: (Active assays), ER assay listed as active [5] | ToxCast 1: (Active assays), positive/total ER assays [5] | CERAPP Potency Level [7] | ToxCast 1: (Active assays), number of positive assays / assays run [8] | ToxCast (Aromatase assays), positive/total [10] | aromatase inhibitory action [14] | further results
O=C(O)c1ccc(C(=O)O)cc1 [Terephthalic acid, terephthalic acid] | > 100 | > 100 | Negative | Negative | Negative | Negative | Negative | Negative | Negative | Boarderline: less than 50% efficacy (31.34%) | OT_ER_ERaERb_1440 | 1/18 Positive | Negative | 0/14 positive | 0/2 positive |  | ToxCast Pathway Model (AUC) ([6]; as agonist where given, value above 0.1 = significant interaction): 0; ToxCast Pathway Model interaction [6]: NO significant interaction; ToxCast Pathway Model (AUC) [9]: AUC = 0, then there is no significant interaction.
CCN(CC)c1ccc(C(=O)c2ccccc2C(=O)O)c(O)c1 [DEABA, 2-(4-(diethylamino)-2-hydroxybenzoyl)benzoic acid] | > 100 | > 100 | Negative | Negative | Negative | Negative | Negative | Negative | Negative | Boarderline: less than 50% efficacy (28.5%) | TOX21_ERa_LUC_VM7_Agonist | 1/8 positive | Negative | 1/9 positive | 0/2 positive |  | ER binding outcome [11]: negative; inhibition of control specific binding to the ER ([11]; single-dose screening, 10 µM): less than -25%; ToxCast conclusion from assays result [5]: Endocrine Disruption Potential.Significant Estrogen Receptor activity seen; ToxCast conclusion from assays result ([8]; AR sheet): Endocrine Disruption Potential.Significant Estrogen Receptor activity seen; efficacy (assays Comments) ([8]; TOX21_AR_BLA_Antagonist_ratio): Boarderline: less than 50% efficacy (38.5%); ER antagonism in the YES assay [12]: inconclusive; Lowest Effective Concentration (LEC), ER agonism [13]: 56 µM
CC/C(=C(\c1ccc(O)cc1)c1ccc(OCCNC)cc1)c1ccccc1 [endoxifen] |  |  |  |  |  |  |  |  |  |  |  |  |  |  |  | potent inhibitors | 
CC/C(=C(\c1ccccc1)c1ccc(OCCNC)cc1)c1ccccc1 [N-desmethyl-tamoxifen] |  |  |  |  |  |  |  |  |  |  |  |  |  |  |  | potent inhibitors | 

— publication PMC10761396, “Evaluation of new alternative methods for the identification of estrogenic, androgenic and steroidogenic effects: a comparative in vitro/in silico study” (Archives of Toxicology, 2023)
